This is an account of results in patent publication US10981908B2, “Aryl hydrocarbon receptor (AHR) modulator compounds” (PHENEX PHARMACEUTICALS AG, priority 2017, dated 2021).

This assay concerns the target T1, AhR (Homo sapiens, UniProt P35869).
T1 construct: The HepG2 CYP1A1-Luc cells do express basal luciferase activity that can be increased via potent AhR agonists or decreased via potent AhR antagonists; endogenous in cells
T1 sequence (P35869 11-848): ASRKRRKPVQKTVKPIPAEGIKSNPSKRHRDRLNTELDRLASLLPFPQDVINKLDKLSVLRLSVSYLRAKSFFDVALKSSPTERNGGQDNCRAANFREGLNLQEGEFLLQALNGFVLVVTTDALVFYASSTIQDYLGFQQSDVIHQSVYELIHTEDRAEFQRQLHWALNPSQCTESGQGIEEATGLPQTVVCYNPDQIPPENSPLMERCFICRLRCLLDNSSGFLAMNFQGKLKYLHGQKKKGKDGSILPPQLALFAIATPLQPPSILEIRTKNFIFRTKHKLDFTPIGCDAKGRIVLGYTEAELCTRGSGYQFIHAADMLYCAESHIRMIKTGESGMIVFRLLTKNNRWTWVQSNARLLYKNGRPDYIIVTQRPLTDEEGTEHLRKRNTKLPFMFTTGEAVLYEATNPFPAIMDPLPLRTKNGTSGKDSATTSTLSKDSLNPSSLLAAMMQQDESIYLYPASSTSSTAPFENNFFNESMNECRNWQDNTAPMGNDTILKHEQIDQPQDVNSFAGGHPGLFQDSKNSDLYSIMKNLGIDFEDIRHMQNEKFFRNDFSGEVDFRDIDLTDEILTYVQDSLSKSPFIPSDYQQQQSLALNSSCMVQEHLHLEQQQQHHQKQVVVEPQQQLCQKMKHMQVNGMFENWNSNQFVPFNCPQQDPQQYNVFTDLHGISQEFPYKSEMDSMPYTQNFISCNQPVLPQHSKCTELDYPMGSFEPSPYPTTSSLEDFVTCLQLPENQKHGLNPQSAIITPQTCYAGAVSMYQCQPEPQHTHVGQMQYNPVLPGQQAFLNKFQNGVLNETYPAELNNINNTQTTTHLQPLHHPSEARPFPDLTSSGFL
Briefly: AhR direct luciferase reporter assay in HepG2 cells (HepG2 CYP1A1-LUC). The settings on record: luciferase activity after 18 hours, medium with no exogenous AhR agonist or 10 nM VAF347, read-out: AhR potency (AhR antagonistic potency, IC50 class). The format is cell-based. The source says: AhR Direct Luciferase Reporter Assay in HepG2 Cells
A stable cell line (HepG2 CYP1A1-LUC) was used in which part of the promoter region of the human CYP1A1 gene is stably integrated into the genome of human HepG2 hepatocytes (DSZM #ACC 180) in front of a Photinus pyralis Firefly Luciferase gene. A 1210 bp fragment comprising part of the human CYP1A1 promoter was isolated via SacI and BgIII restriction digestion from Lightswitch Clone S714555 (SwitchGearGenomics) and inserted between the SacI and BgIII sites in pGL4.30 (Promega #E8481) in front of the Firefly Luciferase gene. The resulting vector was linearized with NotI, transfected into HepG2 cells (DSMZ #ACC 180) and stably transfected clones selected with 250 μg/ml Hygromycin B. After repetitive rounds of subcloning and testing for robustly regulated luciferase activity after AhR agonist stimulation, a stable clonal HepG2 CYP1A1-Luc cell line was selected.
The HepG2 CYP1A1-Luc cells do express basal luciferase activity that can be increased via potent AhR agonists or decreased via potent AhR antagonists, added to the growth medium of the cells.
In typical reporter assays performed with this cell line, cells are grown in 96-well plates and AhR modulators are titrated into the growth medium in serial dilutions in RPMI-1640 Medium (Sigma #R7509) supplemented with 8,6% fetal calf serum (Sigma #F7524) and containing either no exogenous AhR agonist or 10 nM of the potent AhR agonist VAF347 (Calbiochem #182690). Cells are further cultivated for 18 hours and luciferase activities are determined from extracts of cells in buffers containing D-Luciferine and ATvP using a LUMIstar Optima microplate Luminometer from BMG Labtech.

Take `Cn1ncnc1C(=O)Nc1ccc2cc(-c3cc(F)ccc3C(F)(F)F)[nH]c2n1` [Example 1/12, N-(2-(5-Fluoro-2-(trifluoromethyl)phenyl)-1H-pyrrolo[2,3-b]pyridin-6-yl)-1-methyl-1H-1,2,4-triazole-5-carboxamide]: the half-inhibitory concentration (IC50) was < 100 nM.

Regarding `CCc1ccccc1-c1cc2ccc(NC(=O)c3ncnn3C)nc2[nH]1` [4/1], the IC50 is < 100 nM.

As to `Cc1ocnc1C(=O)Nc1ccc2cc(-c3ccccc3C(F)F)[nH]c2n1` [5/1], the IC50 was < 100 nM.

With `Cn1ncnc1C(=O)Nc1ccc2c(F)c(-c3ccccc3C(F)F)[nH]c2n1` [4/6], the IC50 lay in the range of 100 to 1000 nM.

With `Cn1ncnc1C(=O)Nc1ccc2cc(-c3ccccc3C#N)[nH]c2n1` [4/2], the IC50 was in the range of 100 to 1000 nM.

`Cn1ncnc1C(=O)Nc1ccc2cc(-c3ccccc3C(F)(F)F)[nH]c2n1` [Example 1/6, 1-Methyl-N-(2-(2-(trifluoromethyl)phenyl)-1H-pyrrolo[2,3-b]pyridin-6-yl)-1H-1,2,4-triazole-5-carboxamide]: the 50% inhibitory concentration (IC50) is < 100 nM.

As for `Cn1ccnc1C(=O)Nc1ccc2cc(-c3ccccc3C(F)F)[nH]c2n1` [4/4], the IC50 was < 100 nM.

Consider `Cn1nccc1C(=O)Nc1ccc2cc(-c3ccccc3C(F)(F)F)[nH]c2n1` [Example 1/1, 1-Methyl-N-(2-(2-(trifluoromethyl)phenyl)-1H-pyrrolo[2,3-b]pyridin-6-yl)-1H-pyrazole-5-carboxamide], for which the IC50 was < 100 nM.

On to `Cn1ncnc1C(=O)Nc1ccc2cc(-c3ncccc3C(F)(F)F)[nH]c2n1` [Example 1/17, 1-Methyl-N-(2-(3-(trifluoromethyl)pyridin-2-yl)-1H-pyrrolo[2,3-b]pyridin-6-yl)-1H-1,2,4-triazole-5-carboxamide], for which the 50% inhibitory concentration (IC50) is > 1000 nM.

In the case of `Cc1ccc(C(F)(F)F)c(-c2cc3ccc(NC(=O)c4ncnn4C)nc3[nH]2)c1` [Example 1/33, 1-Methyl-N-(2-(5-methyl-2-(trifluoromethyl)phenyl)-1H-pyrrolo[2,3-b]pyridin-6-yl)-1H-1,2,4-triazole-5-carboxamide], the IC50 is < 100 nM.

Take `Cn1ncnc1C(=O)Nc1ccc2cc(-c3cccc4ccccc34)[nH]c2n1` [Example 1/13, 1-Methyl-N-(2-(naphthalen-1-yl)-1H-pyrrolo[2,3-b]pyridin-6-yl)-1H-1,2,4-triazole-5-carboxamide]: the concentration for half-maximal inhibition (IC50) was < 100 nM.

Take `COc1ccccc1-c1cc2ccc(NC(=O)c3ncnn3C)nc2[nH]1` [Example 1/18, N-(2-(2-Methoxyphenyl)-1H-pyrrolo[2,3-b]pyridin-6-yl)-1-methyl-11H-1,2,4-triazole-5-carboxamide]: the IC50 was 100 to 1000 nM.
